# Experimental data published in PubChem BioAssay (NCI).
#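 Exposure lasted 48 hours, with cells grown in 96-well plates and compounds tested at five concentrations. TGI denotes the concentration required for complete inhibition of growth.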
# What was measured:
# Assay in all cases: DTP human tumour cell line panel, 48 h
# HS 578T breast = test system: HS 578T breast
# SK-OV-3 ovarian = test system: SK-OV-3 ovarian
# SK-MEL-5 melanoma = test system: SK-MEL-5 melanoma
# SF-295 CNS = test system: SF-295 CNS
# K-562 leukemia = test system: K-562 leukemia
# HT29 colon = test system: HT29 colon
# OVCAR-5 ovarian = test system: OVCAR-5 ovarian
# TK-10 renal = test system: TK-10 renal
# M14 melanoma = test system: M14 melanoma
# HCC-2998 colon = test system: HCC-2998 colon
# PC-3 prostate = test system: PC-3 prostate
# SNB-19 CNS = test system: SNB-19 CNS
# HCT-15 colon = test system: HCT-15 colon
# HOP-62 NSCLC = test system: HOP-62 NSCLC
# 786-0 renal = test system: 786-0 renal
# KM12 colon = test system: KM12 colon
# MOLT-4 leukemia = test system: MOLT-4 leukemia
# DU-145 prostate = test system: DU-145 prostate
# LOX IMVI melanoma = test system: LOX IMVI melanoma
smiles,measurement,setting,value
CCCC(=O)N1CCN(c2ccc3c(c2)OC(C)O3)CC1 (stereo unspecified),TGI,HS 578T breast,> 100 µM
same,TGI,SK-OV-3 ovarian,> 100 µM
same,TGI,SK-MEL-5 melanoma,> 100 µM
same,TGI,SF-295 CNS,> 100 µM
same,TGI,K-562 leukemia,> 100 µM
same,TGI,HT29 colon,> 100 µM
same,TGI,OVCAR-5 ovarian,> 100 µM
same,TGI,TK-10 renal,> 100 µM
same,TGI,M14 melanoma,> 100 µM
same,TGI,HCC-2998 colon,> 100 µM
same,TGI,PC-3 prostate,> 100 µM
same,TGI,SNB-19 CNS,> 100 µM
same,TGI,HCT-15 colon,> 100 µM
same,TGI,HOP-62 NSCLC,> 100 µM
same,TGI,786-0 renal,> 100 µM
same,TGI,KM12 colon,> 100 µM
same,TGI,MOLT-4 leukemia,> 100 µM
same,TGI,DU-145 prostate,> 100 µM
Cc1cc2c(cc1C(=O)c1ccc(N)cc1)OCO2,TGI,HS 578T breast,> 100 µM
same,TGI,SK-OV-3 ovarian,85.6 µM
same,TGI,SK-MEL-5 melanoma,61.4 µM
same,TGI,SF-295 CNS,86 µM
same,TGI,K-562 leukemia,> 100 µM
same,TGI,HT29 colon,61.3 µM
same,TGI,OVCAR-5 ovarian,> 100 µM
same,TGI,TK-10 renal,> 100 µM
same,TGI,M14 melanoma,> 100 µM
same,TGI,PC-3 prostate,> 100 µM
same,TGI,SNB-19 CNS,> 100 µM
same,TGI,HCT-15 colon,> 100 µM
same,TGI,HOP-62 NSCLC,> 100 µM
same,TGI,786-0 renal,> 100 µM
same,TGI,KM12 colon,> 100 µM
same,TGI,MOLT-4 leukemia,> 100 µM
same,TGI,DU-145 prostate,> 100 µM
CCOC(=O)c1nc2cc(F)c(N3CCOCC3)cc2[nH]c1=O,TGI,HS 578T breast,> 100 µM
same,TGI,SK-OV-3 ovarian,> 100 µM
same,TGI,SK-MEL-5 melanoma,> 100 µM
same,TGI,SF-295 CNS,> 100 µM
same,TGI,K-562 leukemia,> 100 µM
same,TGI,HT29 colon,> 100 µM
same,TGI,OVCAR-5 ovarian,> 100 µM
same,TGI,TK-10 renal,> 100 µM
same,TGI,M14 melanoma,> 100 µM
same,TGI,HCC-2998 colon,> 100 µM
same,TGI,PC-3 prostate,> 100 µM
same,TGI,SNB-19 CNS,> 100 µM
same,TGI,HCT-15 colon,> 100 µM
same,TGI,HOP-62 NSCLC,> 100 µM
same,TGI,786-0 renal,> 100 µM
same,TGI,KM12 colon,> 100 µM
same,TGI,MOLT-4 leukemia,> 100 µM
same,TGI,DU-145 prostate,> 100 µM
O=C1NI(C#Cc2ccccc2)c2ccccc21,TGI,HS 578T breast,> 100 µM
same,TGI,SK-OV-3 ovarian,95.1 µM
same,TGI,SK-MEL-5 melanoma,> 100 µM
same,TGI,SF-295 CNS,> 100 µM
same,TGI,K-562 leukemia,> 100 µM
same,TGI,HT29 colon,> 100 µM
same,TGI,TK-10 renal,> 100 µM
same,TGI,M14 melanoma,> 100 µM
same,TGI,LOX IMVI melanoma,> 100 µM
same,TGI,PC-3 prostate,79.6 µM
same,TGI,SNB-19 CNS,> 100 µM
same,TGI,HCT-15 colon,> 100 µM
same,TGI,HOP-62 NSCLC,> 100 µM
same,TGI,786-0 renal,> 100 µM
same,TGI,KM12 colon,> 100 µM
same,TGI,MOLT-4 leukemia,> 100 µM
same,TGI,DU-145 prostate,> 100 µM
Cc1ncc([N+](=O)[O-])n1CCNCCCCn1ccnc1[N+](=O)[O-],TGI,HS 578T breast,> 100 µM
same,TGI,SK-OV-3 ovarian,> 100 µM
same,TGI,SK-MEL-5 melanoma,> 100 µM
same,TGI,SF-295 CNS,> 100 µM
same,TGI,K-562 leukemia,> 100 µM
same,TGI,HT29 colon,> 100 µM
same,TGI,OVCAR-5 ovarian,> 100 µM
same,TGI,TK-10 renal,> 100 µM
same,TGI,M14 melanoma,> 100 µM
same,TGI,LOX IMVI melanoma,> 100 µM
same,TGI,PC-3 prostate,> 100 µM
same,TGI,HCT-15 colon,> 100 µM
same,TGI,HOP-62 NSCLC,> 100 µM
same,TGI,786-0 renal,> 100 µM
same,TGI,KM12 colon,> 100 µM
same,TGI,MOLT-4 leukemia,> 100 µM
same,TGI,DU-145 prostate,> 100 µM
Cc1nn(C(=O)CC(=O)Nc2ccc(Cl)cc2)c(C)c1N=Nc1ccccc1C(=O)O,TGI,SK-OV-3 ovarian,> 100 µM
same,TGI,SK-MEL-5 melanoma,> 100 µM
same,TGI,SF-295 CNS,> 100 µM
same,TGI,K-562 leukemia,> 100 µM
same,TGI,HT29 colon,> 100 µM
same,TGI,OVCAR-5 ovarian,> 100 µM
same,TGI,TK-10 renal,> 100 µM
same,TGI,M14 melanoma,> 100 µM
same,TGI,LOX IMVI melanoma,> 100 µM
same,TGI,HCC-2998 colon,> 100 µM
same,TGI,SNB-19 CNS,> 100 µM
same,TGI,HCT-15 colon,> 100 µM
same,TGI,HOP-62 NSCLC,> 100 µM
same,TGI,786-0 renal,> 100 µM
same,TGI,KM12 colon,> 100 µM
same,TGI,MOLT-4 leukemia,> 100 µM
COC(=O)NC(C(F)(F)F)(C(F)(F)F)P1(=O)OCCCO1,TGI,HS 578T breast,> 100 µM
same,TGI,SK-OV-3 ovarian,55.7 µM
same,TGI,SK-MEL-5 melanoma,40.6 µM
same,TGI,SF-295 CNS,55.3 µM
same,TGI,K-562 leukemia,> 100 µM
same,TGI,HT29 colon,63.9 µM
same,TGI,OVCAR-5 ovarian,82.1 µM
same,TGI,TK-10 renal,97.6 µM
same,TGI,M14 melanoma,> 100 µM
same,TGI,LOX IMVI melanoma,58.4 µM
same,TGI,PC-3 prostate,> 100 µM
same,TGI,SNB-19 CNS,78.7 µM
same,TGI,HCT-15 colon,59 µM
same,TGI,HOP-62 NSCLC,58.6 µM
same,TGI,786-0 renal,> 100 µM
same,TGI,KM12 colon,64.7 µM
same,TGI,MOLT-4 leukemia,> 100 µM
same,TGI,DU-145 prostate,> 100 µM
